In patent publication US20260022142A1, “MACROCYCLIC IMMUNOMODULATORS” (Bristol-Myers Squibb Company, priority 2022, published 2026) one finds IC50 data, which are given here for 13 compounds.

Bridge positions count the residues as written; N and C are the ends. Square brackets hold non-standard residues; d marks the D form. Peptide text beside a SMILES is read from it. * marks the point of attachment. ξ: configuration not given here. Bip = N[C@@H](Cc1ccc(-c2ccccc2)cc1)C(=O)O; Phe(3-Me) = Cc1cccc(C[C@H](N)C(=O)O)c1; Cha = N[C@@H](CC1CCCCC1)C(=O)O; Cit = NC(=O)NCCC[C@H](N)C(=O)O; Thr(3ξ) = CC(O)[C@H](N)C(=O)O; Ala(CN) = N#CC[C@H](N)C(=O)O; Carboxymethyl = O=C(O)C*; Orn = NCCC[C@H](N)C(=O)O; Aun = NCCCCCCCCCCC(=O)O; Dab = NCC[C@H](N)C(=O)O

In general, IC50 refers to the concentration that gives 50% inhibition.

For the assay, the target named is T1, PD-1/PD-L1 interaction (PE-labeled human PD-L1-Ig binding to Jurkat cell line over-expressing human PD-1) (Homo sapiens, UniProt Q15116).
T1 construct: expressed in transfected cells; host or cells: Jurkat
T1 sequence (Q15116 25-288): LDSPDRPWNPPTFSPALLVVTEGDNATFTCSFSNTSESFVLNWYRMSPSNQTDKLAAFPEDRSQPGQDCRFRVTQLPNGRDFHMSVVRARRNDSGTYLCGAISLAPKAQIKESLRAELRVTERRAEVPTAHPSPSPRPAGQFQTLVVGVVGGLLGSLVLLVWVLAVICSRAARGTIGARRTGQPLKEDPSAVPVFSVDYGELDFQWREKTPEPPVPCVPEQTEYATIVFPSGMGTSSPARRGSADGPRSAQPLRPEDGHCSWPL
The assay can be described thus: Jurkat-PD-1 Cell Binding High-Content Screening Assay (CBA). Format: cell-based. Conditions: Jurkat cell line over-expressing human PD-1; PE-labeled PD-L1-Ig 20 nM final; read-out: Jurkat hPD1-PDL1 IC50. Put shortly:
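Jurkat cells stably over-expressing human PD-1 were seeded in DMEM with 10% fetal calf serum and pre-incubated with compound for 2 h at 37° C. PE-labeled human PD-L1-Ig was then added at 20 nM final for 1 hour, after which cells were fixed with paraformaldehyde, Hoechst-stained and imaged by high-content microscopy.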
For `CC(C)C[C@H]1NC(=O)[C@H](CCCN)NC(=O)[C@H](Cc2ccc(O)cc2)NC(=O)[C@H](Cc2ccc(-c3ccccc3)cc2)NC(=O)[C@H](C(C)C)NC(=O)[C@H](Cc2c[nH]c3ccccc23)NC(=O)[C@H](CC(=O)O)NC(=O)[C@H](Cc2ccc(OCC(=O)O)cc2)NC(=O)[C@H](CC(N)=O)NC(=O)CSC[C@@H](C(=O)N[C@@H](CCN)C(=O)NCCCCCCCCCCC(=O)O)NC(=O)[C@H](CC#N)NC(=O)[C@H](C(C)C)NC(=O)[C@H](CC2CCCCC2)NC(=O)[C@H](CCN)NC1=O` [Compound 3425] ({CH2CO}-NY(Carboxymethyl)DWV[Bip]Y[Orn][dL][Dab][Cha]V[Ala(CN)]C[Dab][Aun]-OH; thioether N-14), the IC50 turned out to be 54.8 nM.

As to `Cc1cccc(C[C@@H]2NC(=O)[C@H](CC(=O)O)NC(=O)[C@H](Cc3ccc(OCC(=O)O)cc3)NC(=O)[C@H](C(C)O)NC(=O)CSC[C@@H](C(=O)N[C@@H](CC(N)=O)C(=O)NCCCCCCCCCCC(=O)O)NC(=O)[C@H](CCCNC(N)=O)NC(=O)[C@H](C(C)C)NC(=O)[C@H](CC3CCCCC3)NC(=O)[C@H](CCN)NC(=O)[C@@H](CC(C)C)NC(=O)[C@H](CCCN)NC(=O)[C@H](Cc3ccc(O)cc3)NC(=O)[C@H](Cc3ccc(-c4ccccc4)cc3)NC(=O)[C@H](C(C)C)NC2=O)c1` (stereo partly drawn) [Compound 3426] ({CH2CO}-[Thr(3ξ)]Y(Carboxymethyl)D[Phe(3-Me)]V[Bip]Y[Orn][dL][Dab][Cha]V[Cit]CN[Aun]-OH; thioether N-14), the IC50 worked out at 10.7 nM.

Turning to `Cc1cccc(C[C@@H]2NC(=O)[C@H](CC(=O)O)NC(=O)[C@H](Cc3ccc(OCC(=O)O)cc3)NC(=O)[C@H](C(C)O)NC(=O)CSC[C@@H](C(=O)N[C@@H](CC(N)=O)C(=O)NCCCCCCCCCCC(=O)O)NC(=O)[C@H](C(C)O)NC(=O)[C@H](C(C)C)NC(=O)[C@H](CC3CCCCC3)NC(=O)[C@H](CCN)NC(=O)[C@@H](CC(C)C)NC(=O)[C@H](CCCN)NC(=O)[C@H](Cc3ccc(O)cc3)NC(=O)[C@H](Cc3ccc(-c4ccccc4)cc3)NC(=O)[C@H](C(C)C)NC2=O)c1` (stereo partly drawn) [Compound 3427] ({CH2CO}-[Thr(3ξ)]Y(Carboxymethyl)D[Phe(3-Me)]V[Bip]Y[Orn][dL][Dab][Cha]V[Thr(3ξ)]CN[Aun]-OH; thioether N-14), the IC50 was 16.8 nM.

Turning to `Cc1cccc(C[C@@H]2NC(=O)[C@H](CC(=O)O)NC(=O)[C@H](Cc3ccc(OCC(=O)O)cc3)NC(=O)[C@H](C(C)O)NC(=O)CSC[C@@H](C(=O)N[C@H](CC(N)=O)C(=O)NCCCCCCCCCCC(=O)O)NC(=O)[C@H](CCC(N)=O)NC(=O)[C@H](C(C)C)NC(=O)[C@H](CC3CCCCC3)NC(=O)[C@H](CCN)NC(=O)[C@@H](CC(C)C)NC(=O)[C@H](CCCN)NC(=O)[C@H](Cc3ccc(O)cc3)NC(=O)[C@H](Cc3ccc(-c4ccccc4)cc3)NC(=O)[C@H](C(C)C)NC2=O)c1` (stereo partly drawn) [Compound 3428] ({CH2CO}-[Thr(3ξ)]Y(Carboxymethyl)D[Phe(3-Me)]V[Bip]Y[Orn][dL][Dab][Cha]VQC[dN][Aun]-OH; thioether N-14), the IC50 turned out to be 9.8 nM.

Regarding `CC(C)C[C@H]1NC(=O)[C@H](CCCN)NC(=O)[C@H](Cc2ccc(O)cc2)NC(=O)[C@H](Cc2ccc(-c3ccccc3)cc2)NC(=O)[C@H](Cc2ccc(O)cc2)NC(=O)[C@H](Cc2c[nH]c3ccccc23)NC(=O)[C@H](CC(=O)O)NC(=O)[C@H](Cc2ccc(OCC(=O)O)cc2)NC(=O)[C@H](C(C)O)NC(=O)CSC[C@@H](C(=O)N[C@H](CC(N)=O)C(=O)NCCCCCCCCCCC(=O)O)NC(=O)[C@H](C(C)O)NC(=O)[C@H](C(C)C)NC(=O)[C@H](CC2CCCCC2)NC(=O)[C@H](CCN)NC1=O` (stereo partly drawn) [Compound 3429] ({CH2CO}-[Thr(3ξ)]Y(Carboxymethyl)DWY[Bip]Y[Orn][dL][Dab][Cha]V[Thr(3ξ)]C[dN][Aun]-OH; thioether N-14), the IC50 was determined as 41.5 nM.

As for `Cc1cccc(C[C@@H]2NC(=O)[C@H](CC(=O)O)NC(=O)[C@H](Cc3ccc(OCC(=O)O)cc3)NC(=O)[C@H](C(C)O)NC(=O)CSC[C@@H](C(=O)N[C@H](CC(N)=O)C(=O)NCCCCCCCCCCC(=O)O)NC(=O)[C@H](C(C)O)NC(=O)[C@H](C(C)C)NC(=O)[C@H](CC3CCCCC3)NC(=O)[C@H](CCN)NC(=O)[C@@H](CC(C)C)NC(=O)[C@H](CCCN)NC(=O)[C@H](CCC(N)=O)NC(=O)[C@H](Cc3ccc(-c4ccccc4)cc3)NC(=O)[C@H](C(C)C)NC2=O)c1` (stereo partly drawn) [Compound 3430] ({CH2CO}-[Thr(3ξ)]Y(Carboxymethyl)D[Phe(3-Me)]V[Bip]Q[Orn][dL][Dab][Cha]V[Thr(3ξ)]C[dN][Aun]-OH; thioether N-14), the IC50 came out at 7.6 nM.

With `CC(=O)NCCCC[C@@H]1NC(=O)[C@H](Cc2ccc(-c3ccccc3)cc2)NC(=O)[C@H](C(C)C)NC(=O)[C@H](Cc2cccc(C)c2)NC(=O)[C@H](CC(=O)O)NC(=O)[C@H](Cc2ccc(OCC(=O)O)cc2)NC(=O)[C@H](C(C)O)NC(=O)CSC[C@@H](C(=O)N[C@H](CC(N)=O)C(=O)NCCCCCCCCCCC(=O)O)NC(=O)[C@H](C(C)O)NC(=O)[C@H](C(C)C)NC(=O)[C@H](CC2CCCCC2)NC(=O)[C@H](CCN)NC(=O)[C@@H](CC(C)C)NC(=O)[C@H](CCCN)NC1=O` (stereo partly drawn) [Compound 3431] ({CH2CO}-[Thr(3ξ)]Y(Carboxymethyl)D[Phe(3-Me)]V[Bip]K(Ac)[Orn][dL][Dab][Cha]V[Thr(3ξ)]C[dN][Aun]-OH; thioether N-14), the IC50 was 4.9 nM.

Turning to `Cc1cccc(C[C@@H]2NC(=O)[C@H](CC(=O)O)NC(=O)[C@H](Cc3ccc(OCC(=O)O)cc3)NC(=O)[C@H](C(C)O)NC(=O)CSC[C@@H](C(=O)N[C@H](CC(N)=O)C(=O)NCCCCCCCCCCC(=O)O)NC(=O)[C@H](CO)NC(=O)[C@H](C(C)C)NC(=O)[C@H](CC3CCCCC3)NC(=O)[C@H](CCN)NC(=O)[C@@H](CC(C)C)NC(=O)[C@H](CCCN)NC(=O)[C@H](Cc3ccc(O)cc3)NC(=O)[C@H](Cc3ccc(-c4ccccc4)cc3)NC(=O)[C@H](C(C)C)NC2=O)c1` (stereo partly drawn) [Compound 3432] ({CH2CO}-[Thr(3ξ)]Y(Carboxymethyl)D[Phe(3-Me)]V[Bip]Y[Orn][dL][Dab][Cha]VSC[dN][Aun]-OH; thioether N-14), the IC50 amounted to 11.4 nM.

Consider `CC(C)C[C@H]1NC(=O)[C@H](CCCN)NC(=O)[C@H](Cc2ccc(O)cc2)NC(=O)[C@H](Cc2ccc(-c3ccccc3)cc2)NC(=O)[C@H](Cc2ccc(O)cc2)NC(=O)[C@H](Cc2c[nH]c3ccccc23)NC(=O)[C@H](CC(=O)O)NC(=O)[C@H](Cc2ccc(OCC(=O)O)cc2)NC(=O)[C@H](C(C)O)NC(=O)CSC[C@@H](C(=O)N[C@H](CC(N)=O)C(=O)NCCCCCCCCCCC(=O)O)NC(=O)[C@H](CCC(N)=O)NC(=O)[C@H](C(C)C)NC(=O)[C@H](CC2CCCCC2)NC(=O)[C@H](CCN)NC1=O` (stereo partly drawn) [Compound 3433] ({CH2CO}-[Thr(3ξ)]Y(Carboxymethyl)DWY[Bip]Y[Orn][dL][Dab][Cha]VQC[dN][Aun]-OH; thioether N-14), for which the IC50 amounted to 40.6 nM.

Take `Cc1cccc(C[C@@H]2NC(=O)[C@H](CC(=O)O)NC(=O)[C@H](Cc3ccc(OCC(=O)O)cc3)NC(=O)[C@H](CCCNC(=N)N)NC(=O)CSC[C@@H](C(=O)N[C@H](CC(N)=O)C(=O)NCCCCCCCCCCC(=O)O)NC(=O)[C@H](CCC(N)=O)NC(=O)[C@H](C(C)C)NC(=O)[C@H](CC3CCCCC3)NC(=O)[C@H](CCN)NC(=O)[C@@H](CC(C)C)NC(=O)[C@H](CCCN)NC(=O)[C@H](CCCNC(N)=O)NC(=O)[C@H](Cc3ccc(-c4ccccc4)cc3)NC(=O)[C@H](C(C)C)NC2=O)c1` [Compound 3434] ({CH2CO}-RY(Carboxymethyl)D[Phe(3-Me)]V[Bip][Cit][Orn][dL][Dab][Cha]VQC[dN][Aun]-OH; thioether N-14): the IC50 came out at 10.5 nM.

As for `Cc1cccc(C[C@@H]2NC(=O)[C@H](CC(=O)O)NC(=O)[C@H](Cc3ccc(OCC(=O)O)cc3)NC(=O)[C@H](C(C)O)NC(=O)CSC[C@@H](C(=O)N[C@H](CCC(=O)O)C(=O)NCCCCCCCCCCC(=O)O)NC(=O)[C@H](C(C)O)NC(=O)[C@H](C(C)C)NC(=O)[C@H](CC3CCCCC3)NC(=O)[C@H](CCN)NC(=O)[C@@H](CC(C)C)NC(=O)[C@H](CCCN)NC(=O)[C@H](C(C)C)NC(=O)[C@H](Cc3ccc(-c4ccccc4)cc3)NC(=O)[C@H](Cc3ccc(O)cc3)NC2=O)c1` (stereo partly drawn) [Compound 3435] ({CH2CO}-[Thr(3ξ)]Y(Carboxymethyl)D[Phe(3-Me)]Y[Bip]V[Orn][dL][Dab][Cha]V[Thr(3ξ)]C[dE][Aun]-OH; thioether N-14), the IC50 turned out to be 12.9 nM.

`Cc1cccc(C[C@@H]2NC(=O)[C@H](CC(=O)O)NC(=O)[C@H](Cc3ccc(OCC(=O)O)cc3)NC(=O)[C@H](C(C)O)NC(=O)CSC[C@@H](C(=O)N[C@H](CC(N)=O)C(=O)NCCCCCCCCCCC(=O)O)NC(=O)[C@H](C(C)O)NC(=O)[C@H](C(C)C)NC(=O)[C@H](CC3CCCCC3)NC(=O)[C@H](CCN)NC(=O)[C@@H](CC(C)C)NC(=O)[C@H](CCCN)NC(=O)[C@H](C(C)C)NC(=O)[C@H](Cc3ccc(-c4ccccc4)cc3)NC(=O)[C@H](C(C)C)NC2=O)c1` (stereo partly drawn) [Compound 3436] ({CH2CO}-[Thr(3ξ)]Y(Carboxymethyl)D[Phe(3-Me)]V[Bip]V[Orn][dL][Dab][Cha]V[Thr(3ξ)]C[dN][Aun]-OH; thioether N-14): the IC50 was determined as 17 nM.

Regarding `CC(=O)NCCCC[C@@H]1NC(=O)[C@H](Cc2ccc(-c3ccccc3)cc2)NC(=O)[C@H](C(C)C)NC(=O)[C@H](Cc2cccc(C)c2)NC(=O)[C@H](CC(=O)O)NC(=O)[C@H](Cc2ccc(OCC(=O)O)cc2)NC(=O)[C@H](C(C)O)NC(=O)CSC[C@@H](C(=O)N[C@H](CC(N)=O)C(=O)NCCCCCCCCCCC(=O)O)NC(=O)[C@H](CCC(N)=O)NC(=O)[C@H](C(C)C)NC(=O)[C@H](CC2CCCCC2)NC(=O)[C@H](CCN)NC(=O)[C@@H](CC(C)C)NC(=O)[C@H](CCCN)NC1=O` (stereo partly drawn) [Compound 3437] ({CH2CO}-[Thr(3ξ)]Y(Carboxymethyl)D[Phe(3-Me)]V[Bip]K(Ac)[Orn][dL][Dab][Cha]VQC[dN][Aun]-OH; thioether N-14), the IC50 stood at 11.2 nM.
